Results from US20100331269A1, “TRITERPENES DERIVATIVES AND USES THEREOF AS ANTITUMOR AGENTS OR ANTI-INFLAMMATORY AGENTS” (priority 2006, published 2010).

Experiments:
[1] = tested on: WS-1 human normal skin fibroblasts; assay: Cytotoxicity, resazurin metabolism assay, WS-1; format: cell-based; conditions: 48 h, mean ± SD
Summary of the method: (§1)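 Cells plated at 5×10^3/well, adhered 16 h, then exposed to increasing compound concentrations (DMSO) for 48 h. Viability by resazurin reduction, fluorescence ex 530/em 590 nm, blank-subtracted versus control wells; IC50 as mean±SD from three experiments in triplicate.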

[2] = Determination of the maximum tolerated dose (MTD) after a single IP injection; format: in vivo, mice; conditions: for CSS Closed eyes / CSS Diarrhea / CSS Lethargy / CSS Rough coat / CSS Total / Number of deaths: 5 mice
Experimental: Groups of five mice (Charles River) received a single IP injection of 3-O-α-L-rhamnopyranoside betulinic acid (22) in DMSO at doses of 50, 100, 250 and 500 mg/kg of body weight. […] A group of five control mice received the vehicle (DMSO). […] For each animal, a score was calculated based on the absence (value 0) or presence (value 1) of diarrhoea, lethargy, rough coat and closed eyes. A clinical state score (CSS) was then calculated per group by summing individual scores. All the mice were weighed daily during 3 days following the injection. The maximal weight loss was determined 24 hours and 3 days following the injection. The MTD was defined as the highest single dose that met all the following criteria: 1) zero death per group; 2) maximal weight loss 20% in non-tumour bearing animals; and 3) CSS value lower than 15.

[3] = tested on: DLD-1 human colorectal adenocarcinoma cells; assay: Cytotoxicity, resazurin metabolism assay, DLD-1; format: cell-based; conditions: 48 h, mean ± SD
Summary of the method: as §1

[4] = tested on: A-549 human lung carcinoma cells; assay: Cytotoxicity, resazurin metabolism assay, A-549; format: cell-based; conditions: 48 h, mean ± SD
Summary of the method: as §1

[5] = tested on: B16-F1 mouse melanoma cells; assay: Cytotoxicity, resazurin metabolism assay, B16-F1; format: cell-based; conditions: 48 h, mean ± SD
Summary of the method: as §1

C=C(C)[C@@H]1CC[C@]2(C(=O)O)CC[C@]3(C)[C@H](CC[C@@H]4[C@@]5(C)CC[C@H](O[C@@H]6O[C@@H](C)[C@H](O)[C@@H](O)[C@H]6O)C(C)(C)[C@@H]5CC[C@]43C)[C@@H]12 [Compound 22, 3-O-α-L-Rhamnopyranoside of betulinic acid]
IC50 [1]: 31 ± 3 µM | Max. weight loss after 24 hours ([2]; 50 mg/kg single IP): 11% | Max. weight loss after 3 days ([2]; 50 mg/kg single IP): 0% | CSS Closed eyes ([2]; 50 mg/kg single IP): 0 | CSS Diarrhea ([2]; 50 mg/kg single IP): 0 | CSS Lethargy ([2]; 50 mg/kg single IP): 0 | CSS Rough coat ([2]; 50 mg/kg single IP): 0 | CSS Total ([2]; 50 mg/kg single IP): 0 | Number of deaths ([2]; 50 mg/kg single IP): 0 | Max. weight loss after 24 hours ([2]; 100 mg/kg single IP): 14% | Max. weight loss after 3 days ([2]; 100 mg/kg single IP): 0% | CSS Closed eyes ([2]; 100 mg/kg single IP): 0 | CSS Diarrhea ([2]; 100 mg/kg single IP): 0 | CSS Lethargy ([2]; 100 mg/kg single IP): 0 | CSS Rough coat ([2]; 100 mg/kg single IP): 0 | CSS Total ([2]; 100 mg/kg single IP): 0 | Number of deaths ([2]; 100 mg/kg single IP): 0 | Max. weight loss after 24 hours ([2]; 250 mg/kg single IP): 9% | Max. weight loss after 3 days ([2]; 250 mg/kg single IP): 0% | CSS Closed eyes ([2]; 250 mg/kg single IP): 5 | CSS Diarrhea ([2]; 250 mg/kg single IP): 0 | CSS Lethargy ([2]; 250 mg/kg single IP): 0 | CSS Rough coat ([2]; 250 mg/kg single IP): 5 | CSS Total ([2]; 250 mg/kg single IP): 10 | Number of deaths ([2]; 250 mg/kg single IP): 0 | Max. weight loss after 24 hours ([2]; 500 mg/kg single IP): 11% | Max. weight loss after 3 days ([2]; 500 mg/kg single IP): 0% | Rough coat and closed eyes observed, share of the mice ([2]; 500 mg/kg single IP): 100% | CSS Closed eyes ([2]; 500 mg/kg single IP): 5 | CSS Diarrhea ([2]; 500 mg/kg single IP): 5 | CSS Lethargy ([2]; 500 mg/kg single IP): 2 | CSS Rough coat ([2]; 500 mg/kg single IP): 5 | CSS Total ([2]; 500 mg/kg single IP): 17 | Number of deaths ([2]; 500 mg/kg single IP): 0 | Calculated dose for an average human weighting 60 kg ([2]; 60 kg human): 139.8 mg | Body weight loss after 24 h ([2]; all tested doses (50-500 mg/kg), single IP): 9-14% | Mortality ([2]; all tested doses, single IP): no mortality | Weight loss after 3 days (returned to initial weight) ([2]; all tested doses, single IP): 0% | Calculated MTD (human, after security factor of 10) ([2]; human equivalent dose divided by 10): 2.33 mg/kg | MTD (maximum tolerated dose) ([2]; mice, single IP injection in DMSO): 250 mg/kg | MTD equivalent in human (human equivalent dose) ([2]; mouse MTD 250 mg/kg divided by conversion factor 12.3): 20.33 mg/kg | IC50 [3]: 3.9 ± 0.4 µM | IC50 [4]: 2.6 ± 0.6 µM | IC50 [5]: 3.9 ± 0.4 µM
